Assay results from patent publication US20230141284A1, “CANCER THERAPEUTIC METHOD” (ONO PHARMACEUTICAL CO., LTD., priority 2020, published 2023).

Tests used:
[1] = Conversion of a prodrug to its active body (Compound B) in mouse plasma; type: in vitro ADME; conditions: 1 μmol/L, 37° C., 60 minutes
Protocol: (§1) The solutions of the example compounds in Table 2 below (50 μmol/L, 50% acetonitrile with 5% DMSO) were added to plasma (245 μL), respectively, such that the final concentrations thereof become 1 μmol/L. After keeping them the temperature at 37° C. for 60 minutes, 40 μL of the reaction solutions were taken therefrom, and added to 200 μL of acetonitrile/ethanol (7:3) containing Candesartan (internal standard).
(§2) The concentration of the compound prepared in Example 3 (Compound B) in the plasma resulting from the above reaction was analyzed by LC-MS/MS according to the following method.
(§3) The whole amount was transferred to a filter plate for protein removal and filtered by suction, and the filtrate thereof was diluted 2-fold with water. [LC column] Shim-pack XR-ODSII 2.0 mm ID×75 mm (Shimadzu Corporation) [LC condition] Column temperature: 40° C. Mobile phase: A: 0.2% formic acid in 5 mM ammonium acetate solution; and
(§4) [MS conditions] Electrospray, positive mode, multiple reaction monitoring; MS monitor ion: Compound B: m/z353.0→m/z311.2, DP: 80, CE: 35; and Candesartan (internal standard): m/z309.1→m/z163.0, DP: 71, CE: 21.
(§5) A regression formula was calculated from the peak area ratio (peak area of Compound B/peak area of Candesartan) of the real sample and the standard sample for the calibration curve in the same matrix, and the peak area ratio of the real sample was substituted into the regression formula to calculate the quantitative value. 60 minutes later, the concentration of Compound B in the sample was compared, and the conversion rate (%) thereof was calculated using the following formula:
(§6) Conversion rate (%)=Concentration of Compound B in the sample after 60 minutes (μmol/L)×100

[2] = Conversion of a prodrug to its active body (Compound B) in human plasma; type: in vitro ADME; conditions: 1 μmol/L, 37° C., 60 minutes
Protocol: as §1, §2, §3, §4, §5, §6

| Plasma conversion rate Mouse [1] | Plasma conversion rate Human [2] | SMILES |
| --- | --- | --- |
| + + + | + + + | CC(=O)c1cc(-c2ncc(-c3cnn(COC(=O)OCCN4CCOCC4)c3)c3onc(N)c23)c(F)cc1N.Cl [Example 12(4), (4-(4-(5-acetyl-4-amino-2-fluorophenyl)-3-aminoisoxazolo[4,5-c]pyridin-7-yl)-1H-pyrazol-1-yl)methyl (2-morpholinoethyl)carbonate hydrochloride] |
| + + + | + + + | CC(=O)c1cc(-c2ncc(-c3cnn(COC(=O)OC[C@H]4OC(O)[C@H](O)[C@@H](O)[C@@H]4O)c3)c3onc(N)c23)c(F)cc1N (stereo partly drawn) [Example 12(5), (4-(4-(5-acetyl-4-amino-2-fluorophenyl)-3-aminoisoxazolo[4,5-c]pyridin-7-yl)-1H-pyrazol-1-yl)methyl (((2R,3S,4S,5R)-3,4,5,6-tetrahydroxytetrahydro-2H-pyran-2-yl)methyl) carbonate] |
| + + + | + + + | CC(=O)c1cc(-c2ncc(-c3cnn(COC(=O)OC[C@H]4OC(O)[C@H](N)[C@@H](O)[C@@H]4O)c3)c3onc(N)c23)c(F)cc1N.Cl (stereo partly drawn) [Example 12(6), (4-(4-(5-acetyl-4-amino-2-fluorophenyl)-3-aminoisoxazolo[4,5-c]pyridin-7-yl)-1H-pyrazol-1-yl)methyl (((2R,3S,4R,5R)-5-amino-3,4,6-trihydroxytetrahydro-2H-pyran-2-yl)methyl) carbonate hydrochloride] |
| + + + | + + + | COC(=O)n1cc(-c2cnc(-c3cc(C(C)=O)c(N)cc3F)c3c(N)noc23)cn1 [Example 12(10), methyl 4-(4-(5-acetyl-4-amino-2-fluorophenyl)-3-aminoisoxazolo[4,5-c]pyridin-7-yl)-1H-pyrazole-1-carboxylate] |

Further lines, the molecule ahead of its results:

| SMILES | Plasma conversion rate Mouse [1] | Plasma conversion rate Human [2] |
| --- | --- | --- |
| CC(=O)c1cc(-c2ncc(-c3cnn(COC(=O)N(C)c4ncccc4COP(=O)(O)O)c3)c3onc(N)c23)c(F)cc1N [Example 12(1), (4-(5-(5-acetyl-4-amino-2-fluorophenyl)-3-aminoisoxazolo[4,5-c]pyridin-7-yl)-1H-pyrazol-1-yl)methyl methyl(3-((phosphonooxy)methyl)pyridin-2-yl)carbamate] | + (the conversion rate of each example compound in the table to Compound B is less than 25%) | + + |
| CNCC(=O)OCc1cccnc1N(C)C(=O)OC(C)n1cc(-c2cnc(-c3cc(C(C)=O)c(N)cc3F)c3c(N)noc23)cn1 (stereo not shown) [Example 12(2), (2-(((1-(4-(5-(5-acetyl-4-amino-2-fluorophenyl)-3-aminoisoxazolo[4,5-c]pyridin-7-yl)-1H-pyrazol-1-yl)ethoxy)carbonyl)(methyl)amino)pyridin-3-yl)methyl methylglycinate] | + + + | + + + |
| CNCC(=O)OCc1cccnc1N(C)C(=O)OCn1cc(-c2cnc(-c3cc(C(C)=O)c(N)cc3F)c3c(N)noc23)cn1.Cl [Example 12(3), 2-((2-((((4-(4-(5-acetyl-4-amino-2-fluorophenyl)-3-aminoisoxazolo[4,5-c]pyridin-7-yl)-1H-pyrazol-1-yl)methoxy)carbonyl)(methyl)amino)pyridin-3-yl)methoxy)-N-methyl-2-oxoethane-1-ammonium chloride] | + + + | + + + |
| CC(=O)c1cc(-c2ncc(-c3cnn(C(=O)NCC(=O)O)c3)c3onc(N)c23)c(F)cc1N [Example 12(9), (4-(4-(5-acetyl-4-amino-2-fluorophenyl)-3-aminoisoxazolo[4,5-c]pyridin-7-yl)-1H-pyrazole-1-carbonyl)glycine] | + (the conversion rate of each example compound in the table to Compound B is less than 25%) | + (the conversion rate of each example compound in the table to Compound B is less than 25%) |
